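Following 48 hours of exposure in 96-well plates, responses at five concentrations were used to interpolate endpoints linearly. The concentration for 50% growth inhibition is given as GI50. TGI denotes the concentration required for complete inhibition of growth.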
Tests used:
Test in all cases: growth of human tumour cells (NCI), 48 h
786-0 renal = test system: 786-0 renal
A498 renal = test system: A498 renal
A549 NSCLC = test system: A549 NSCLC
ACHN renal = test system: ACHN renal
BT-549 breast = test system: BT-549 breast
CAKI-1 renal = test system: CAKI-1 renal
CCRF-CEM leukemia = test system: CCRF-CEM leukemia
COLO 205 colon = test system: COLO 205 colon
DU-145 prostate = test system: DU-145 prostate
EKVX NSCLC = test system: EKVX NSCLC
HCC-2998 colon = test system: HCC-2998 colon
HCT-15 colon = test system: HCT-15 colon
HL-60(TB) leukemia = test system: HL-60(TB) leukemia
HOP-62 NSCLC = test system: HOP-62 NSCLC
HOP-92 NSCLC = test system: HOP-92 NSCLC
HS 578T breast = test system: HS 578T breast
HT29 colon = test system: HT29 colon
IGROV1 ovarian = test system: IGROV1 ovarian
K-562 leukemia = test system: K-562 leukemia
KM12 colon = test system: KM12 colon
LOX IMVI melanoma = test system: LOX IMVI melanoma
M14 melanoma = test system: M14 melanoma
MALME-3M melanoma = test system: MALME-3M melanoma
MCF7 breast = test system: MCF7 breast
MDA-MB-231 breast = test system: MDA-MB-231 breast
MDA-MB-435 = test system: MDA-MB-435
MDA-MB-468 breast = test system: MDA-MB-468 breast
MOLT-4 leukemia = test system: MOLT-4 leukemia
NCI-H226 lung = test system: NCI-H226 lung

## COc1ccc(-c2nc3ccccc3n2CC(=O)N=Nc2c(O)[nH]c3ccc(OC)cc23)cc1
786-0 renal
  GI50: 1.77 µM
  TGI: 4.26 µM
A498 renal
  GI50: 15.4 µM
  TGI: 29.6 µM
A549 NSCLC
  GI50: 4.51 µM
  TGI: 17.5 µM
ACHN renal
  GI50: 2.39 µM
  TGI: 6.62 µM
BT-549 breast
  GI50: 2.52 µM
  TGI: 6.47 µM
CAKI-1 renal
  GI50: 2.77 µM
  TGI: 8.75 µM
CCRF-CEM leukemia
  GI50: 27.5 µM
  TGI: > 100 µM
COLO 205 colon
  GI50: 16.1 µM
  TGI: 33.9 µM
DU-145 prostate
  GI50: 4.53 µM
  TGI: 15.5 µM
EKVX NSCLC
  GI50: 11.2 µM
  TGI: 28.2 µM
HCC-2998 colon
  GI50: 6.54 µM
  TGI: 19 µM
HCT-15 colon
  GI50: 3.01 µM
  TGI: 11.7 µM
HL-60(TB) leukemia
  GI50: 2.83 µM
  TGI: 13.5 µM
HOP-62 NSCLC
  GI50: 17.5 µM
  TGI: 35.1 µM
HOP-92 NSCLC
  GI50: 8.19 µM
  TGI: 26.4 µM
HS 578T breast
  GI50: 6.39 µM
  TGI: 32.3 µM
HT29 colon
  GI50: 2.17 µM
  TGI: 4.9 µM
IGROV1 ovarian
  GI50: 12.3 µM
  TGI: 25.4 µM
K-562 leukemia
  GI50: 4.1 µM
  TGI: 95.8 µM
KM12 colon
  GI50: 15.2 µM
  TGI: 33.8 µM
LOX IMVI melanoma
  GI50: 2.02 µM
  TGI: 4.76 µM
M14 melanoma
  GI50: 3.15 µM
  TGI: 11 µM
MALME-3M melanoma
  GI50: 3.28 µM
  TGI: 12.7 µM
MCF7 breast
  GI50: 2.01 µM
  TGI: 4.72 µM
MDA-MB-231 breast
  GI50: 5.76 µM
  TGI: 19.2 µM
MDA-MB-435
  GI50: 4.09 µM
  TGI: 15.1 µM
MDA-MB-468 breast
  GI50: 2 µM
  TGI: 5.17 µM
MOLT-4 leukemia
  GI50: 5.71 µM
  TGI: 36.5 µM
NCI-H226 lung
  GI50: 1.8 µM
  TGI: 3.99 µM

— PubChem BioAssay (NCI)
